Results taken from BigSolDB 2.1.

CC(CN1c2ccccc2S(=O)(=O)c2ccccc21)N(C)C.Cl (centres undefined)
Details | solubility (mole fraction)
in DMF, 278.2 K | 0.00381
in DMF, 283.2 K | 0.00418
in DMF, 288.27 K | 0.00448
in DMF, 293.18 K | 0.00474
in DMF, 298.17 K | 0.00514
in DMF, 303.19 K | 0.00554
in DMF, 308.23 K | 0.00601
in DMF, 313.17 K | 0.00658
in DMF, 318.23 K | 0.00716
in DMF, 323.18 K | 0.00783
in NMP, 278.16 K | 0.00641
in NMP, 283.2 K | 0.00692
in NMP, 288.24 K | 0.00747
in NMP, 293.16 K | 0.00791
in NMP, 298.17 K | 0.00843
in NMP, 308.17 K | 0.00975
in NMP, 313.21 K | 0.0104
in NMP, 318.23 K | 0.0111
in NMP, 323.27 K | 0.0119
in acetic acid, 293.16 K | 0.00208
in acetic acid, 298.18 K | 0.00277
in acetic acid, 303.18 K | 0.00347
in acetic acid, 308.2 K | 0.00433
in acetic acid, 313.17 K | 0.00548
in acetic acid, 318.22 K | 0.00689
in acetic acid, 328.23 K | 0.01
in acetic acid, 333.19 K | 0.0123
in acetic acid, 338.2 K | 0.0149
in acetone, 278.2 K | 0.000103
in acetone, 283.16 K | 0.000124
in acetone, 288.16 K | 0.00015
in acetone, 293.17 K | 0.000177
in acetone, 298.18 K | 0.000199
in acetone, 303.17 K | 0.000216
in acetone, 308.21 K | 0.000237
in acetone, 313.2 K | 0.000258
in acetone, 318.18 K | 0.000278
in acetone, 323.17 K | 0.000298
in ethanol, 278.16 K | 0.000269
in ethanol, 283.21 K | 0.000296
in ethanol, 288.22 K | 0.000322
in ethanol, 293.18 K | 0.000365
in ethanol, 298.21 K | 0.000419
in ethanol, 303.22 K | 0.0005
in ethanol, 308.18 K | 0.000589
in ethanol, 313.17 K | 0.000686
in ethanol, 318.2 K | 0.000829
in methanol, 278.17 K | 0.000759
in methanol, 283.22 K | 0.000925
in methanol, 288.19 K | 0.00112
in methanol, 293.26 K | 0.00137
in methanol, 298.17 K | 0.00156
in methanol, 303.19 K | 0.00185
in methanol, 308.21 K | 0.00225
in methanol, 313.21 K | 0.00284
in methanol, 318.18 K | 0.0034
in water, 278.28 K | 0.00136
in water, 283.27 K | 0.00163
in water, 288.27 K | 0.002
in water, 293.24 K | 0.00246
in water, 298.18 K | 0.00302
in water, 303.18 K | 0.00379
in water, 308.16 K | 0.00484
in water, 313.22 K | 0.00625
